Legend:
Type in all cases: biochemical
[1] = target: T1, Savinase Ultra 16.0L (Lederbergia lenta, UniProt P29600); assay: protease storage stability in liquid formulation (Suc-AAPF-pNA substrate); details: storage at 37° C.
T1 construct: purchased Sigma-Aldrich
T1 sequence (P29600 1-269): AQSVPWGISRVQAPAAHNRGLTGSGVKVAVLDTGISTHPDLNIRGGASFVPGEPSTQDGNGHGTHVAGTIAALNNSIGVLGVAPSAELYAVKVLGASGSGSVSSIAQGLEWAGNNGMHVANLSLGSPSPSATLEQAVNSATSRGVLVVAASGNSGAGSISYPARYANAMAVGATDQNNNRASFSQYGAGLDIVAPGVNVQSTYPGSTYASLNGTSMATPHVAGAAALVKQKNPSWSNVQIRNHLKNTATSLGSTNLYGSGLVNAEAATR
Experimental: (§1) Base test formulations were manufactured by making base formulations I to V by mixing the components according to Table 1.
Protease used: (S) Savinase Ultra 16.0L (CAS-No. 9014-01-1, EC-No. 232-752-2) was purchased from Sigma-Aldrich
(§2) The respective component (a) or comparative compound was added, if applicable, to the respective base formulation in amounts as indicated in Table 1.
The amount of protease as provided in Table 1 refers to active protein.
(§3) Water was added to accomplish the balance to 100.
Protease activity at certain points in time as indicated in Table 3 was be determined by employing Succinyl-Ala-Ala-Pro-Phe-p-nitroanilide (Suc-AAPF-pNA, short AAPF) as substrate. pNA is cleaved from the substrate molecule by proteolytic cleavage, resulting in release of yellow color of free pNA which was determined by measuring […]. Measurements were done at 20° C.
The proteolytic activity values provided in Table 3 were calculated referring to the value determined in the reference formulation at the time 0.
The nomenclature of formulations is as follows: the Roman number before the full stop characterizes the base formulation, the Arabian number the type of salt (A.#inventive salt (component (a)); B.# comparative compound). Zero (“0”): no salt, but diethylene glycol.

[2] = system: Amy2=Amplify; assay: amylase storage stability in liquid formulation (pNP release from Ethyliden-blocked-pNPG7); set-up: key: % of activity in reference formulation at time 0; details: base formulation V., 2.0 wt % component (a), storage at 37° C.
Experimental: (§4) The storage stability of amylase was assessed at 37° C. Base test formulations were manufactured by making base formulations I to V by mixing the components according to Table 1. Amylases used: Amy1=Stainzyme, Amy2=Amplify, Amy3=Stainzyme Plus L (12L) The respective component (a) or comparative compound was added, if applicable, to the respective base formulation in amounts as indicated in Table 1. The amount of amylase as provided in Table 1 refers to active protein. Water was added to accomplish the balance to 100. […] Amylase activity at certain points in time as indicated in Table 2 was measured quantitatively by the release of the chromophore para-nitrophenol (pNP) from the substrate ([…]-blocked-pNPG7, Roche Applied Science 10880078103). The alpha-amylase degrades the substrate into smaller molecules and α-glucosidase (Roche Applied Science 11626329103), which is present in excess compared to the amylase, process these smaller products until pNP is released; the release of pNP, measured via an increase of absorption at 405 nm, is directly proportional to the amylase activity of the sample. Amylase standard: […] 120 L (Sigma 3403). […] The amylolytic activity values provided were calculated referring to the value determined in the reference formulation at the time 0. The nomenclature of formulations is as follows: the Roman number before the full stop characterizes the base formulation, the Arabian number the type of compound (A.# compound according to invention (component (a)); B.# comparative compound).

[3] = system: Amy1=Stainzyme; assay: as above; set-up: key: % of activity in reference formulation at time 0; details: base formulation IV., 2.0 wt % component (a), storage at 37° C.
Experimental: as §4

[4] = system: Amy3=Stainzyme Plus L (12L); assay: as above; details: base formulation II., 1.5 wt % component (a), storage at 37° C.
Experimental: The storage stability of amylase was assessed at 37° C.
as §1
Amylases used: Amy1=Stainzyme, Amy2=Amplify, Amy3=Stainzyme Plus L (12L)
as §2
The amount of amylase as provided in Table 1 refers to active protein.
as §3
Amylase activity at certain points in time as indicated in Table 2 was measured quantitatively by the release of the chromophore para-nitrophenol (pNP) from the substrate (Ethyliden-blocked-pNPG7, Roche Applied Science 10880078103). The alpha-amylase degrades the substrate into smaller molecules and α-glucosidase (Roche Applied Science 11626329103), which is present in excess compared to the amylase, process these smaller products until pNP is released; the release of pNP, measured via an increase of absorption at 405 nm, is directly proportional to the amylase activity of the sample. Amylase standard: Termamyl 120 L (Sigma 3403).
The amylolytic activity values provided were calculated referring to the value determined in the reference formulation at the time 0.
The nomenclature of formulations is as follows: the Roman number before the full stop characterizes the base formulation, the Arabian number the type of compound (A.# compound according to invention (component (a)); B.# comparative compound).

Compound: O=C(CC(O)(CC(=O)OCc1ccccc1)C(=O)OCc1ccccc1)OCc1ccccc1 [A.8, Tribenzylcitrate]
- protease activity, referring to reference formulation at time 0 ([1]; base formulation II., 1.5 wt % component (a), 3 d): 94
- protease activity, referring to reference formulation at time 0 ([1]; base formulation II., 1.5 wt % component (a), 7 d): 93
- protease activity, referring to reference formulation at time 0 ([1]; base formulation II., 1.5 wt % component (a), 14 d): 90
- protease activity, referring to reference formulation at time 0 ([1]; base formulation II., 1.5 wt % component (a), 21 d): 87
- protease activity, referring to reference formulation at time 0 ([1]; base formulation II., 1.5 wt % component (a), 28 d): 83
- protease activity, referring to reference formulation at time 0 ([1]; base formulation II., 1.5 wt % component (a), 42 d): 75
- protease activity, referring to reference formulation at time 0 ([1]; base formulation II., 1.5 wt % component (a), T0): 100
- protease activity, referring to reference formulation at time 0 ([1]; base formulation IV., 2.0 wt % component (a), 3 d): 96
- protease activity, referring to reference formulation at time 0 ([1]; base formulation IV., 2.0 wt % component (a), 7 d): 93
- protease activity, referring to reference formulation at time 0 ([1]; base formulation IV., 2.0 wt % component (a), 14 d): 88
- protease activity, referring to reference formulation at time 0 ([1]; base formulation IV., 2.0 wt % component (a), 21 d): 83
- protease activity, referring to reference formulation at time 0 ([1]; base formulation IV., 2.0 wt % component (a), 28 d): 75
- protease activity, referring to reference formulation at time 0 ([1]; base formulation IV., 2.0 wt % component (a), 42 d): 68
- protease activity, referring to reference formulation at time 0 ([1]; base formulation IV., 2.0 wt % component (a), T0): 98
- protease activity, referring to reference formulation at time 0 ([1]; base formulation V., 2.0 wt % component (a), 3 d): 96
- protease activity, referring to reference formulation at time 0 ([1]; base formulation V., 2.0 wt % component (a), 7 d): 92
- protease activity, referring to reference formulation at time 0 ([1]; base formulation V., 2.0 wt % component (a), 14 d): 86
- protease activity, referring to reference formulation at time 0 ([1]; base formulation V., 2.0 wt % component (a), 21 d): 82
- protease activity, referring to reference formulation at time 0 ([1]; base formulation V., 2.0 wt % component (a), 28 d): 77
- protease activity, referring to reference formulation at time 0 ([1]; base formulation V., 2.0 wt % component (a), 42 d): 69
- protease activity, referring to reference formulation at time 0 ([1]; base formulation V., 2.0 wt % component (a), T0): 100
- amylase activity, referring to reference formulation at time 0 ([2]; 3 d): 93
- amylase activity, referring to reference formulation at time 0 ([2]; 7 d): 86
- amylase activity, referring to reference formulation at time 0 ([2]; 14 d): 80
- amylase activity, referring to reference formulation at time 0 ([2]; 21 d): 77
- amylase activity, referring to reference formulation at time 0 ([2]; 28 d): 66
- amylase activity, referring to reference formulation at time 0 ([2]; 42 d): 59
- amylase activity, referring to reference formulation at time 0 ([2]; T0): 98
- amylase activity, referring to reference formulation at time 0 ([3]; 3 d): 96
- amylase activity, referring to reference formulation at time 0 ([3]; 7 d): 92
- amylase activity, referring to reference formulation at time 0 ([3]; 14 d): 86
- amylase activity, referring to reference formulation at time 0 ([3]; 21 d): 81
- amylase activity, referring to reference formulation at time 0 ([3]; 28 d): 70
- amylase activity, referring to reference formulation at time 0 ([3]; 42 d): 59
- amylase activity, referring to reference formulation at time 0 ([3]; T0): 98
- amylase activity, referring to reference formulation at time 0 ([4]; 3 d): 100
- amylase activity, referring to reference formulation at time 0 ([4]; 7 d): 95
- amylase activity, referring to reference formulation at time 0 ([4]; 14 d): 90
- amylase activity, referring to reference formulation at time 0 ([4]; 21 d): 83
- amylase activity, referring to reference formulation at time 0 ([4]; 28 d): 81
- amylase activity, referring to reference formulation at time 0 ([4]; 42 d): 71
- amylase activity, referring to reference formulation at time 0 ([4]; T0): 99
